Values joined by “and” are separate entries in the source; they are usually repeats but may differ in a detail not shown here. Identical values can stand only once.
Experiments:
Assay type in all cases: binding
[1] = target: T1, 14-3-3β/CFTRpS753pS768 complex (Homo sapiens, UniProt P13569+P31946); experiment: Dose-response fluorescence polarization (FP) assay, compound titration; conditions: for FP signal: With 14-3-3
T1 construct: His6 (cleaved yes); made in house; peptide synthetic
Summary of the method: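 Compounds were titrated in two-fold dilutions against 10 μM 14-3-3β and FITC-CFTR pS753pS768 peptide (100 nM or 10 nM). Buffer: 10 mM HEPES pH 7.4, 150 mM NaCl, 0.1% Tween20, 1 mg/mL BSA. Polarization was read at ex 485/em 535 nm, and EC50 was derived from a four-parameter variable-slope fit.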

[2] = target: T2, FITC-labeled CFTRpS753pS768 peptide (no 14-3-3) (Homo sapiens, UniProt P13569); experiment: Dose-response FP control assay in the absence of 14-3-3; conditions: No 14-3-3
T2 construct: made in house; host or cells: synthetic peptide
Summary of the method: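 Control run without 14-3-3: FITC-CFTR pS753/pS768 peptide (100 nM or 10 nM) with compound titrated in twofold dilutions in 10 mM HEPES pH 7.4, 150 mM NaCl, 0.1% Tween20, 1 mg/mL BSA. Fluorescence polarization read at ex 485/em 535 nm, background subtracted, n = 3. Curves fitted by four-parameter log(agonist) vs. response.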

[3] = target: T1, 14-3-3β/CFTRpS753pS768 complex; experiment: FP assay, 14-3-3β titration at constant compound concentration (apparent KD)

T2 sequence (P13569 747-774 limits assumed): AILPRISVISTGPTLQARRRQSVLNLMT
T1 sequence (P31946 whole entry): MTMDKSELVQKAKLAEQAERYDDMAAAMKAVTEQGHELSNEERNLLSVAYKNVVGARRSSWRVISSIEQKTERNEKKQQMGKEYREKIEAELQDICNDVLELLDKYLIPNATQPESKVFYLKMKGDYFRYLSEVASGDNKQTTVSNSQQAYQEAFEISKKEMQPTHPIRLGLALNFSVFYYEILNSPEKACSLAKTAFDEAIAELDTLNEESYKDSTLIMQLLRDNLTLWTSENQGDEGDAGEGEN

CC1NC(=O)C(CCCNC(=N)N)NC(=O)C2CCCN2Cc2cccc(c2)-c2ccccc2CNC(=O)C(CCCNC(=N)N)NC1=O (stereo not drawn) [CY007476]
EC50 ([1]; 14-3-3β 10 μM, labeled CFTRpS753pS768 100 nM, read-out: EC50): 147 µM
FP signal ([1]; compound 476.8 pM): 1
FP signal ([1]; compound 953.7 pM): 3
FP signal ([1]; compound 1.90735e-9 M): 2
FP signal ([1]; compound 3.8147e-9 M): 5
FP signal ([1]; compound 7.6294e-9 M): 5
FP signal ([1]; compound 1.52588e-8 M): 4
FP signal ([1]; compound 3.05176e-8 M): 6
FP signal ([1]; compound 6.10352e-8 M): 6
FP signal ([1]; compound 1.2207e-7 M): 3
FP signal ([1]; compound 2.44141e-7 M): 4
FP signal ([1]; compound 4.88281e-7 M): 4
FP signal ([1]; compound 9.76563e-7 M): 5
FP signal ([1]; compound 1.95313e-6 M): 5
FP signal ([1]; compound 3.90625e-6 M): 6
FP signal ([1]; compound 7.8125e-6 M): 10
FP signal ([1]; compound 1.5625e-5 M): 13
FP signal ([1]; compound 3.125e-5 M): 24
FP signal ([1]; compound 6.25e-5 M): 59
FP signal ([1]; compound 0.000125 M): 124
FP signal ([1]; compound 0.00025 M): 186
FP signal ([1]; compound 0.0005 M): 230
FP signal ([1]; compound 0.001 M): 257
FP signal ([2]; compound 476.8 pM): 1
FP signal ([2]; compound 953.7 pM): 3
FP signal ([2]; compound 1.90735e-9 M): 2
FP signal ([2]; compound 3.8147e-9 M): 5
FP signal ([2]; compound 7.6294e-9 M): 5
FP signal ([2]; compound 1.52588e-8 M): 4
FP signal ([2]; compound 3.05176e-8 M): 6
FP signal ([2]; compound 6.10352e-8 M): 6
FP signal ([2]; compound 1.2207e-7 M): 3
FP signal ([2]; compound 2.44141e-7 M): 4
FP signal ([2]; compound 4.88281e-7 M): 4
FP signal ([2]; compound 9.76563e-7 M): 5
FP signal ([2]; compound 1.95313e-6 M): 5
FP signal ([2]; compound 3.90625e-6 M): 6
FP signal ([2]; compound 7.8125e-6 M): 10
FP signal ([2]; compound 1.5625e-5 M): 13
FP signal ([2]; compound 3.125e-5 M): 24
FP signal ([2]; compound 6.25e-5 M): 59
FP signal ([2]; compound 0.000125 M): 124
FP signal ([2]; compound 0.00025 M): 186
FP signal ([2]; compound 0.0005 M): 230
FP signal ([2]; compound 0.001 M): 257
Fluorescence polarization signal, 14-3-3β titration ([3]; CY compound (100 μM), 14-3-3β concentration 7.62939e-9 M): 3.667 and 2.667 and 4.667
Fluorescence polarization signal, 14-3-3β titration ([3]; CY compound (100 μM), 14-3-3β concentration 3.05176e-8 M): 5.667 and 6.667
Fluorescence polarization signal, 14-3-3β titration ([3]; CY compound (100 μM), 14-3-3β concentration 2.44141e-7 M): 8.667 and 10.6667 and 11.6667
Fluorescence polarization signal, 14-3-3β titration ([3]; CY compound (100 μM), 14-3-3β concentration 4.88281e-7 M): 12.6667 and 17.6667 and 16.6667
Fluorescence polarization signal, 14-3-3β titration ([3]; CY compound (100 μM), 14-3-3β concentration 7.8125e-6 M): 36.6667 and 60.6667 and 59.6667
Fluorescence polarization signal, 14-3-3β titration ([3]; CY compound (100 μM), 14-3-3β concentration 1.5625e-5 M): 49.6667 and 67.6667 and 72.6667
Fluorescence polarization signal, 14-3-3β titration ([3]; CY compound (100 μM), 14-3-3β concentration 3.125e-5 M): 68.6667 and 82.6667 and 79.6667
Fluorescence polarization signal, 14-3-3β titration ([3]; CY compound (100 μM), 14-3-3β concentration 6.25e-5 M): 87.6667 and 91.6667 and 95.6667
Fluorescence polarization signal, 14-3-3β titration ([3]; CY compound (100 μM), 14-3-3β concentration 0.000125 M): 105.667 and 110.667 and 108.667
Fluorescence polarization signal, 14-3-3β titration ([3]; CY compound (100 μM), 14-3-3β concentration 0.00025 M): 127.667 and 126.667
Fluorescence polarization signal, 14-3-3β titration ([3]; CY compound (100 μM), 14-3-3β concentration 0.0005 M): 145.667 and 146.667 and 147.667
Fluorescence polarization signal, 14-3-3β titration ([3]; FC-A + CY compound, 14-3-3β concentration 119.2 pM): 1.667
Fluorescence polarization signal, 14-3-3β titration ([3]; FC-A + CY compound, 14-3-3β concentration 3.05176e-8 M): 5.667 and 8.667
Fluorescence polarization signal, 14-3-3β titration ([3]; FC-A + CY compound, 14-3-3β concentration 6.10352e-8 M): 6.667 and 12.6667 and 9.667
Fluorescence polarization signal, 14-3-3β titration ([3]; FC-A + CY compound, 14-3-3β concentration 1.2207e-7 M): 20.6667 and 16.6667 and 13.6667
Fluorescence polarization signal, 14-3-3β titration ([3]; FC-A + CY compound, 14-3-3β concentration 2.44141e-7 M): 27.6667 and 26.6667
Fluorescence polarization signal, 14-3-3β titration ([3]; FC-A + CY compound, 14-3-3β concentration 4.88281e-7 M): 49.6667 and 43.6667
Fluorescence polarization signal, 14-3-3β titration ([3]; FC-A + CY compound, 14-3-3β concentration 9.76563e-7 M): 71.6667 and 68.6667 and 64.6667
Fluorescence polarization signal, 14-3-3β titration ([3]; FC-A + CY compound, 14-3-3β concentration 1.95313e-6 M): 94.6667 and 91.6667 and 86.6667
Fluorescence polarization signal, 14-3-3β titration ([3]; FC-A + CY compound, 14-3-3β concentration 3.90625e-6 M): 110.667 and 106.667 and 104.667
Fluorescence polarization signal, 14-3-3β titration ([3]; FC-A + CY compound, 14-3-3β concentration 7.8125e-6 M): 123.667 and 119.667 and 117.667
Fluorescence polarization signal, 14-3-3β titration ([3]; FC-A + CY compound, 14-3-3β concentration 1.5625e-5 M): 128.667 and 130.667
Fluorescence polarization signal, 14-3-3β titration ([3]; FC-A + CY compound, 14-3-3β concentration 3.125e-5 M): 139.667 and 137.667 and 141.667
Fluorescence polarization signal, 14-3-3β titration ([3]; FC-A + CY compound, 14-3-3β concentration 6.25e-5 M): 145.667 and 146.667 and 143.667
Fluorescence polarization signal, 14-3-3β titration ([3]; FC-A + CY compound, 14-3-3β concentration 0.000125 M): 155.667 and 156.667
Fluorescence polarization signal, 14-3-3β titration ([3]; FC-A + CY compound, 14-3-3β concentration 0.00025 M): 165.667 and 164.667 and 162.667
Fluorescence polarization signal, 14-3-3β titration ([3]; FC-A + CY compound, 14-3-3β concentration 0.0005 M): 178.667 and 174.667 and 172.667
